According to the NIST ThermoML archive (doi:10.1016/j.jct.2019.01.007):
Where “and” joins values, the source holds several entries; their conditions need not be identical. Equal values may be shown once.

Conditions: Liquid

CCCCCCCCCC(=O)OC [methyl decanoate]
Conditions	vapor or sublimation pressure
273.35 K	0.0004731 kPa
273.84 K	0.0004984 kPa
274.32 K	0.0005246 kPa
274.8 K	0.0005538 kPa
275.29 K	0.0005879 kPa
275.77 K	0.0006152 kPa
276.26 K	0.0006487 kPa
276.74 K	0.0006849 kPa
277.23 K	0.0007225 kPa
277.71 K	0.0007597 kPa
278.2 K	0.0008032 kPa
278.69 K	0.0008442 kPa
279.18 K	0.0008873 kPa
279.66 K	0.0009341 kPa
280.15 K	0.0009819 kPa
280.64 K	0.001035 kPa
281.12 K	0.001093 kPa
281.47 K	0.001128 kPa
282.96 K	0.001314 kPa
283.48 K	0.001386 kPa
284.46 K	0.001532 kPa
284.96 K	0.001613 kPa
285.43 K	0.001692 kPa
285.64 K	0.00173 kPa
285.74 K	0.001743 kPa
285.95 K	0.001776 kPa
286.44 K	0.001869 kPa
286.95 K	0.001967 kPa
287.44 K	0.002063 kPa
287.94 K	0.002166 kPa and 0.002174 kPa
288.93 K	0.002392 kPa
289.31 K	0.002487 kPa
289.43 K	0.002508 kPa
290.42 K	0.002759 kPa
290.53 K	0.002791 kPa
290.92 K	0.002894 kPa
291.81 K	0.003154 kPa
291.92 K	0.003182 kPa
292.42 K	0.003341 kPa
292.9 K	0.003501 kPa
293.41 K	0.00367 kPa
293.91 K	0.003845 kPa
294.3 K	0.00399 kPa
294.9 K	0.004224 kPa
295.4 K	0.004415 kPa
295.51 K	0.004442 kPa
295.9 K	0.004625 kPa
296.39 K	0.004836 kPa
296.77 K	0.004989 kPa
297.39 K	0.005295 kPa
297.89 K	0.005534 kPa
297.98 K	0.005566 kPa
298.88 K	0.006057 kPa
299.38 K	0.006339 kPa
300.37 K	0.00692 kPa
300.46 K	0.006953 kPa
300.87 K	0.007243 kPa
301.87 K	0.007893 kPa
302.37 K	0.008238 kPa
302.84 K	0.008517 kPa
302.94 K	0.008627 kPa
303.36 K	0.008981 kPa
303.76 K	0.009236 kPa
303.81 K	0.0093 kPa
303.82 K	0.009286 kPa and 0.009287 kPa
303.86 K	0.00937 kPa
304.85 K	0.0102 kPa and 0.01021 kPa
305.24 K	0.01047 kPa
305.26 K	0.01052 kPa
305.29 K	0.01057 kPa
305.35 K	0.01065 kPa
305.42 K	0.01069 kPa
307.68 K	0.01286 kPa
308.6 K	0.01393 kPa
308.64 K	0.014 kPa
310.04 K	0.0157 kPa
310.06 K	0.01581 kPa
310.09 K	0.0158 kPa
310.1 K	0.01574 kPa
310.14 K	0.01575 kPa
312.52 K	0.01912 kPa
313.44 K	0.02065 kPa
313.47 K	0.0207 kPa
314.89 K	0.02316 kPa
314.94 K	0.0232 kPa
317.35 K	0.02798 kPa and 0.02794 kPa
317.42 K	0.02817 kPa
318.24 K	0.0299 kPa
318.28 K	0.03012 kPa
319.72 K	0.0337 kPa
319.78 K	0.03379 kPa and 0.03376 kPa
322.16 K	0.04037 kPa
322.2 K	0.0406 kPa
322.27 K	0.04082 kPa
323.11 K	0.04344 kPa
324.57 K	0.04813 kPa
324.61 K	0.04845 kPa
324.63 K	0.04869 kPa
327.04 K	0.05787 kPa
327.09 K	0.05806 kPa
327.93 K	0.06147 kPa
327.97 K	0.06194 kPa
329.38 K	0.06819 kPa
329.43 K	0.06843 kPa
329.46 K	0.06916 kPa
329.51 K	0.0691 kPa
330.86 K	0.07578 kPa
331.89 K	0.08137 kPa
331.9 K	0.08129 kPa
331.96 K	0.08174 kPa
332.78 K	0.08635 kPa
334.24 K	0.09568 kPa
334.28 K	0.09573 kPa
334.33 K	0.09658 kPa and 0.09631 kPa
334.38 K	0.09672 kPa
335.68 K	0.1054 kPa
336.74 K	0.1133 kPa
336.79 K	0.1135 kPa
337.62 K	0.1198 kPa
339.09 K	0.1322 kPa
339.17 K	0.1333 kPa
339.24 K	0.1341 kPa
340.51 K	0.1449 kPa
340.55 K	0.1456 kPa
341.5 K	0.1546 kPa
341.58 K	0.1555 kPa
341.63 K	0.1564 kPa
341.66 K	0.157 kPa
348.04 K	0.2325 kPa
352.92 K	0.3135 kPa
357.8 K	0.4166 kPa
362.67 K	0.5493 kPa
367.55 K	0.7207 kPa
372.43 K	0.9271 kPa
374.86 K	1.054 kPa
377.3 K	1.195 kPa

CCCCCCCCCCCC(=O)OC [methyl dodecanoate]
Transpiration method
Conditions	vapor or sublimation pressure [kPa]
323.8 K	0.00609
325.9 K	0.00701
327.9 K	0.00853
329.9 K	0.00982
331.8 K	0.0113
333.9 K	0.0134
335.7 K	0.0164
338.7 K	0.0198
340.7 K	0.0228
344.1 K	0.0291
345.9 K	0.0331
349.3 K	0.0413
351.3 K	0.047
354.4 K	0.0603
356.4 K	0.0682
359.6 K	0.0828
361.5 K	0.0952
364.7 K	0.11
366.7 K	0.132
370 K	0.16
371.8 K	0.178
374.7 K	0.214
378.6 K	0.263
381.7 K	0.314
386.8 K	0.412
389.6 K	0.491
391.9 K	0.534
394.9 K	0.635
397 K	0.694
399.2 K	0.774
401.3 K	0.898

CCCCCCCCCCCCCCCCC(=O)OC [methyl heptadecanoate]
Transpiration method
Conditions	vapor or sublimation pressure [kPa]
337.9 K	0.000259
339.75 K	0.000298
341.8 K	0.000371
342.85 K	0.000395
345.85 K	0.000532
347.95 K	0.000685
350 K	0.000803
354.3 K	0.00114
357.5 K	0.00144
360.6 K	0.00195
362.5 K	0.00206
365.25 K	0.00272
366.85 K	0.00301
369 K	0.00377
372.3 K	0.00464
376.2 K	0.0058
379.2 K	0.00772
382.25 K	0.0089
385.65 K	0.0111
387 K	0.0126
389.25 K	0.0152
391.3 K	0.0176
393.4 K	0.0186
396.2 K	0.0246
399.2 K	0.0302
402.35 K	0.0355
405.3 K	0.044
408.15 K	0.0523
412.2 K	0.0635
